Assays:
[1] = target: Replicase polyprotein 1ab (Human coronavirus HKU1 (isolate N5), UniProt P0C6X4); assay: FRET protease activity assay
Method: (§1) PF-00835231 was evaluated against 3CLpro from a variety of other coronaviruses representing alpha, beta and gamma groups of Coronaviridae, using biochemical F rster Resonance Energy Transfer (FRET) protease activity assays.

[2] = target: Replicase polyprotein 1ab (Avian infectious bronchitis virus (strain Beaudette CK), UniProt P0C6Y2); assay: FRET protease activity assay
Sequence of Replicase polyprotein 1ab (Avian infectious bronchitis virus (strain Beaudette CK), UniProt P0C6Y2) (P0C6Y2 2780-3086 limits assumed): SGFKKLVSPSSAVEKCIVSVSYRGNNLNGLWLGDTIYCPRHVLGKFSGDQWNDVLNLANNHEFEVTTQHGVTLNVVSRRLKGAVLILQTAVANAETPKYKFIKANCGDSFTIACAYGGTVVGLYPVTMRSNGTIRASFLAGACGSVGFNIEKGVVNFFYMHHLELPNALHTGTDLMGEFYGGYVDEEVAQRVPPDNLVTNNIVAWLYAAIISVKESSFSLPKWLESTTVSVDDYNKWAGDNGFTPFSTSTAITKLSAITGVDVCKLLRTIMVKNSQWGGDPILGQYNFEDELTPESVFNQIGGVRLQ
Method: as §1

Sequence of Replicase polyprotein 1ab (Human coronavirus HKU1 (isolate N5), UniProt P0C6X4) (P0C6X4 3285-3587 limits assumed): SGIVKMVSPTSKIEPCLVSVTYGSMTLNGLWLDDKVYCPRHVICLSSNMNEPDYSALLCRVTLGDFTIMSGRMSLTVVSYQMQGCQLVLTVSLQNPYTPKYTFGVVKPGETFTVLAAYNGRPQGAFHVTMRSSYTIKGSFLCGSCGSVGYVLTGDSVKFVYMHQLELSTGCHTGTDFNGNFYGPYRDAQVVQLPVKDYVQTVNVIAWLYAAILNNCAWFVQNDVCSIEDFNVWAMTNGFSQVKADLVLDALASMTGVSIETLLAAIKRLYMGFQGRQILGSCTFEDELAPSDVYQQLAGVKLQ

COc1cccc2[nH]c(C(=O)N[C@@H](CC(C)C)C(=O)N[C@@H](C[C@@H]3CCNC3=O)C(=O)CO)cc12 [WO2005113580-Ex-02]
Ki [1]: 0.85 nM | Ki [2]: 4 nM

From BindingDB's records for doi:10.1101/2020.09.12.293498 (Pfizer, 2020)
